We go through three molecules from patent US7449571B2, “Halogenated aminoquinolines and oligonucleotides containing the same” (Board of Regents of the University of Nebraska, priority 2005, dated 2008).

Like-named read-outs stand apart in the source and are kept apart here.

For data set [1] the following is noted: Li et al. 2003, Li et al. 2004; cited from earlier work.

For `Nc1nc([C@H]2C[C@H](O)[C@@H](CO)O2)c2ccccc2n1` [antiAT, 2-amino-4-(2′-deoxy-β-D-ribofuranosyl)quinazoline], the pKa in data set [1] is 4.8.

For `Nc1cc([C@H]2C[C@H](O)[C@@H](CO)O2)c2ccccc2n1` [antiGC, 2-amino-4-(2′-deoxy-β-D-ribofuranosyl) quinoline], the pKa in data set [1] is reported as 7.2.

Molecule `Nc1cc([C@H]2C[C@H](O)[C@@H](CO)O2)c2cc(F)ccc2n1` [antiAT-F, 2-amino-6-fluoro-4-(2′-deoxy-β-D-ribofuranosyl)-quinoline] displayed a pKa (NaOAc buffer, pH 4.602-8.322, UV absorbance at 235 nm or fluorescence emission vs pH) of 6.7. Besides, the “fraction of antiAT-F protonated” value (pH 8.0) is “approximately 2%”.

By pKa is commonly meant the pH at which an ionisable group is half protonated.
